# Results taken from US6197818A, “Drug for treating diabetic nephrosis” (Nanjing General Hospital of Nanjing Command, PLA, priority 1999, dated 2001).
# Columns and labels:
# [1] = solubility and stability of rhein; format: physicochemical
# From the text: It remains steady in room temperature for more than one year. The general formula of rhein or the salt thereof is shown as the following: [drawing 2]
# [2] = system: diabetic nephropathy; assay: Clinical trial of rhein on diabetic nephropathy; format: in vivo, human diabetic patients
# Protocol: Twenty-five diabetic patients diagnosed according to the standard of WHO where enrolled in this study. The fast blood glucose levels were above 250 mg/100 ml in these patients. Diabetic nephropathy was confirmed morphologically by renal biopsy, or with measurement of urinary protein or albumin excretion in each patient.
# A yellow powder supplied in capsula containing 25 mg rhein. The dosage of 100 mg per day (50 mg twice a day) rhein was given orally as therapy. All patients were followed at regular intervals for measurement of serum creatinine values and urinary protein or albumin excretion at least for 3 months.
# [3] = system: Diabetic animal model of rat; assay: Suppression of renal hypertrophy by rhein in experimental diabetic rats (streptozotocin); format: in vivo, SD rats; conditions: for blood glucose level / Kidney Index (kidney weight/body weight ratio) / Kidney Volume / Kidney Weight: rhein-treated 2 mg/Kg/day; for Kidney Index (kidney weight/body weight ratio) / Kidney Volume / Kidney Weight: 12th week
# Protocol: The concentration of rhein is 0.2 g/L.
# Rats were made diabetic by an intra-abdominal injection of Streptozotocin (Sigma Chemical Co.; in 0.1 mmol/L citrate buffer, pH 4.5) in a dose of 25 mg/Kg/day for 5 days.
# (§1) The observation was focused on the changes of kidney weight and volume in diabetic rats treated by rhein.
# [4] = system: SD rats; assay: acute toxicity, half lethal dose (LD50); format: in vivo; conditions: natural product
# [5] = acute toxicity, half lethal dose (LD50); format: in vivo; conditions: rat, in vivo; SD rats
# [6] = tolerability of oral rhein in volunteers; format: in vivo, human volunteers
# Protocol: Of the thirty-six volunteers given rhein at dose of 200 mg/day (100 mg, b.i.d) for 3 days, only 5 persons experience gastro-intestinal disorders. Diarrhea occurred twice or thrice a day in three of these persons, and four times in only one person.
# [7] = pharmacokinetic study of oral rhein, blood level; format: in vivo, human (volunteers)
# Protocol: The blood level of rhein still kept at 200 to 500 ng/ml at 24th hour in volunteers.
# [8] = system: Diabetic animal model of rat; assay: Suppression of renal hypertrophy by sodium rheinate in experimental diabetic rats (streptozotocin); format: in vivo, SD rats; conditions: for blood glucose level / Kidney Index (kidney weight/body weight ratio) / Kidney Weight: treated 1 mg/Kg/day Rhein-Na; for Kidney Index (kidney weight/body weight ratio) / Kidney Weight: 12th week
# Protocol: Drug: aqueous solution of sodium rheinate at concentration of 0.1 g/L for oral
# Diabetic animal model of rat: Adult female SD rats (Experimental Animal Center, Jinling Hospital, Nanjing) with body weights of 200 to 250 grams were used. Rats were made diabetic by an intra-abdominal injection of Streptozotocin (Sigma Chemical Co.; in 0.1 mmol/L citrate buffer, pH 4.5) in a dose of 25 mg/Kg/day for 5 days. Only rats with blood glucose level within the range of 13 to 25 mmol/L were recognized as the establishment of the diabetic mode.
# as §1
# The experiment was designed as the following:
# Normal rats Diabetic rats
# Control treated Control treated
# Dosage of Rhein-Na, 0 1 0 1
# Distilled water, ml/Kg/day 5 5 5 5
# [9] = system: kidney damage caused by diabetes; conditions: cited from earlier work
# [10] = Treatment after 3 months, 100 mg per day
# [11] = of twenty-five, 100 mg per day, three months
# [12] = patients treated with rhein, 100 mg per day
# [13] = diabetic rats, 1 week after diabetic
# [14] = diabetic rats, 4 weeks after diabetic
# [15] = diabetic rats, pre-diabetic (baseline)
# [16] = experimental diabetic rats, oral
# [17] = of thirty-six volunteers, 200 mg/day (100 mg, b.i.d) for 3 days
molecule,measurement,setting,value
O=C(O)c1cc(O)c2c(c1)C(=O)c1cccc(O)c1C2=O [rhein],solubility in organic solvent,[1]; organic solvent,soluble in organic solvent
same,stability (remains steady),[1]; room temperature,more than one
same,solubility in water,[1]; water,soluble slightly in water
same,"gastro-intestinal reactions as vomiting, diarrhea et al.",[2]; 100 mg per day,None
same,share of patients with obvious decrement of urinary protein excretion,"[2]; 18 of twenty-five, 100 mg per day, three months",72%
same,Change of urinary protein excretion: Decrease of 25%,[2]; [10],5 No.
same,Change of urinary protein excretion: Decrease of 50%,[2]; [10],9 No.
same,Change of urinary protein excretion: Decrease of 75%,[2]; [10],4 No.
same,Change of urinary protein excretion: No change,[2]; [10],7 No.
same,tolerability (in words),"[2]; all patients, 100 mg per day",tolerated
same,urinary albumin excretion (in words),[2]; diabetic nephropathy patients,ameliorate the urinary albumin excretion significantly
same,urinary protein excretion (in words),[2]; diabetic patients,could decrease the urinary protein excretion
same,patients with no change or increase of urinary protein excretion,[2]; [11],seven
same,patients with obvious decrement of urinary protein excretion,[2]; [11],18 patients
same,Blood routine test,[2]; [12],normal
same,liver function and renal function,[2]; [12],no liver function abnormally and deterioration of renal function
same,kidney index (in words),[3]; diabetic rats,decrease the kidney index (kidney weight/body weight ratio) obviously
same,renal hypertrophy (in words),[3]; diabetic rats,able to control or suppress renal hypertrophy
same,blood glucose level,[3]; [13],20.32 mmol/L
same,blood glucose level,[3]; [14],19.77 mmol/L
same,blood glucose level,"[3]; diabetic rats, 8 weeks after diabetic",21.00 mmol/L
same,Kidney Index (kidney weight/body weight ratio),[3]; diabetic rats,4.76 ×10^-3
same,Kidney Volume,[3]; diabetic rats,0.834 mL
same,Kidney Weight,[3]; diabetic rats,0.93 grams
same,blood glucose level,"[3]; diabetic rats, 12 weeks after diabetic",19.32 mmol/L
same,blood glucose level,[3]; [15],6.23 mmol/L
same,hyperglycemia (in words),[3]; [16],controlled or reduced effectively
same,blood glucose level,"[3]; normal rats, 1 week",5.92 mmol/L
same,blood glucose level,"[3]; normal rats, 4 weeks",5.66 mmol/L
same,blood glucose level,"[3]; normal rats, 8 weeks",6.07 mmol/L
same,Kidney Index (kidney weight/body weight ratio),[3]; normal rats,4.04 ×10^-3
same,Kidney Volume,[3]; normal rats,0.804 mL
same,Kidney Weight,[3]; normal rats,0.72 grams
same,blood glucose level,"[3]; normal rats, 12 weeks",6.22 mmol/L
same,blood glucose level,"[3]; normal rats, pre-diabetic",6.12 mmol/L
same,toxicity (in words),[4],low toxicity and safe for therapy
same,LD50,[5],3200 mg/kg
same,persons experiencing gastro-intestinal disorders,[6]; [17],5 persons
same,persons with diarrhea four times a day,[6]; [17],one
same,persons with diarrhea twice or thrice a day,[6]; [17],three
same,gastro-intestinal reactions (in words),"[6]; oral route, volunteers",not marked gastro-intestinal reactions
same,concentration at 24 h,"[7]; human, blood, po, 24th hour, volunteers, single dose of 200 mg",200 to 500 ng/mL
same,time to peak blood level,"[7]; one single dose of 200 mg, health man",one and half hours to three
same,absorption from gastro-intestinal trace,[7]; oral,easily absorbed
same,maintenance of blood concentration,[7]; oral,maintains for a longer period
O=C(O)c1cc(O)c2c(c1)C(=O)c1cccc(O)c1C2=O [sodium rheinate],blood glucose level,[8]; [13],21.82 mmol/L
same,blood glucose level,[8]; [14],19.97 mmol/L
same,Kidney Index (kidney weight/body weight ratio),[8]; diabetic rats,5.68 ×10^-3
same,Kidney Weight,[8]; diabetic rats,0.71 grams
same,blood glucose level,[8]; [15],6.17 mmol/L
same,hyperglycemia (in words),[8]; [16],controlled or reduced effectively
same,blood glucose level,"[8]; normal rats, 1 week",6.52 mmol/L
same,blood glucose level,"[8]; normal rats, 4 weeks",6.48 mmol/L
same,Kidney Index (kidney weight/body weight ratio),[8]; normal rats,4.34 ×10^-3
same,Kidney Weight,[8]; normal rats,0.59 grams
same,blood glucose level,"[8]; normal rats, pre-diabetic",6.06 mmol/L
insulin: the main medicament for its treatment is insulin at present,effect on urinary glucose,[9],can decrease the urinary glucose
same,effect on kidney damage caused by diabetes,[9]; such as renal hypertrophy,no therapeutic effect
